The text below walks through data of paper PMC8283942 (Journal of the American Chemical Society, 2021).

SMILES strings stand for the structures.

The assay addresses SsTyrH (heme-dependent L-tyrosine hydroxylase). The experiment in a line: UV–vis substrate titration. The class given is binding, Streptomyces sclerotialus.

Compound `N[C@@H](Cc1ccc(O)cc1)C(=O)O` [Tyr, L-tyrosine] registered a Kd of 109 ± 5 µM.

A word on the Kd: it is the free concentration of one partner at which half of the binding sites on the other are occupied at equilibrium, for simple one-to-one binding. High values mean a looser complex, low ones a tighter complex.
